Where two headings read alike, the source gives them in different places.
Columns and labels:
Assay in all cases: SelectScreen Kinase Profiling, single point inhibition and IC50 for off-target kinases
Format in all cases: biochemical
off-target kinases [1] = target: off-target kinases (Homo sapiens, UniProt O60674); conditions: ATP Km app, ZLYTE
off-target kinases [2] = target: off-target kinases (Homo sapiens, UniProt P08069); conditions: IGF1R, ZLYTE, ATP Km app
off-target kinases [3] = target: off-target kinases (Homo sapiens, UniProt P24723); conditions: PRKCH (PKC eta), ZLYTE, ATP Km app
off-target kinases [4] = target: off-target kinases (Homo sapiens, UniProt P24941)
off-target kinases [5] = target: T1, off-target kinases (Homo sapiens, UniProt P29323); conditions: EPHB2, ZLYTE, ATP Km app
T1 sequence (P29323 19-1055): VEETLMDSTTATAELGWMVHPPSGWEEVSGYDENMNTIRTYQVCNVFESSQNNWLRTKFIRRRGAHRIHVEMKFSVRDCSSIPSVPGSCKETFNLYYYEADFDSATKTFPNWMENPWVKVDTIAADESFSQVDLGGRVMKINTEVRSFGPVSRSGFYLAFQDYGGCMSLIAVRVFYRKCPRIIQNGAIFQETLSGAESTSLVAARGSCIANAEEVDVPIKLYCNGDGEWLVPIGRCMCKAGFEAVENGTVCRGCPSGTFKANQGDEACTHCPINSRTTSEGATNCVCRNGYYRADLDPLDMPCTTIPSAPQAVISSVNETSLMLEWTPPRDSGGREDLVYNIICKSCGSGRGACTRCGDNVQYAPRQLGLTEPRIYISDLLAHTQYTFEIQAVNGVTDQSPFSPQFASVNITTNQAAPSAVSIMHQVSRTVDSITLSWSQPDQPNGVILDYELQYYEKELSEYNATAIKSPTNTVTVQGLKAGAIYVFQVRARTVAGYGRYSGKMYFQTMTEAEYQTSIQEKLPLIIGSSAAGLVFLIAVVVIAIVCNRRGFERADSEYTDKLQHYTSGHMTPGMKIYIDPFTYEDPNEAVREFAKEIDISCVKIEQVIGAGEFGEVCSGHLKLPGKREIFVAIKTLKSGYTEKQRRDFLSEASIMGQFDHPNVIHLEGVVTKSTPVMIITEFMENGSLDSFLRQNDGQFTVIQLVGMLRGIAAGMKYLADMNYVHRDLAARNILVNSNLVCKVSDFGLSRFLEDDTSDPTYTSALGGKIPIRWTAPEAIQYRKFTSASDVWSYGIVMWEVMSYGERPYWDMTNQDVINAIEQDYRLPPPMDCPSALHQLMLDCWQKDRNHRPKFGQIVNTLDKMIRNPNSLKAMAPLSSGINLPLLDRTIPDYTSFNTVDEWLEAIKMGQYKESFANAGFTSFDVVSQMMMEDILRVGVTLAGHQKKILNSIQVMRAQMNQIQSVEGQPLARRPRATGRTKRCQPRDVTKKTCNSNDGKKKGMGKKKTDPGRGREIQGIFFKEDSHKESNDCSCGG

off-target kinases [6] = target: off-target kinases (Homo sapiens, UniProt P49674)
off-target kinases (Homo sapiens, UniProt P49674), sequence (P49674 whole entry): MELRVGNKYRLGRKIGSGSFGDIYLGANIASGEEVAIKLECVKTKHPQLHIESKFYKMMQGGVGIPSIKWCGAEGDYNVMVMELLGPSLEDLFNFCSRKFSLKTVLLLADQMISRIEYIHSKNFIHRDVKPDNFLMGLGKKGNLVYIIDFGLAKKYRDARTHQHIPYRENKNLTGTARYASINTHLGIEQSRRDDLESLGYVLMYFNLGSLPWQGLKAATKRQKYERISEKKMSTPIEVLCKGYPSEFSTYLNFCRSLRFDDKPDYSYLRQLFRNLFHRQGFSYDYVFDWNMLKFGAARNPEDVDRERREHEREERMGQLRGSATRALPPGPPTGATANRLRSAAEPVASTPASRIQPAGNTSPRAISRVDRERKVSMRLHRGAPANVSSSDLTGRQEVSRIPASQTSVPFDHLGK

off-target kinases (Homo sapiens, UniProt P08069), sequence (P08069 31-1367): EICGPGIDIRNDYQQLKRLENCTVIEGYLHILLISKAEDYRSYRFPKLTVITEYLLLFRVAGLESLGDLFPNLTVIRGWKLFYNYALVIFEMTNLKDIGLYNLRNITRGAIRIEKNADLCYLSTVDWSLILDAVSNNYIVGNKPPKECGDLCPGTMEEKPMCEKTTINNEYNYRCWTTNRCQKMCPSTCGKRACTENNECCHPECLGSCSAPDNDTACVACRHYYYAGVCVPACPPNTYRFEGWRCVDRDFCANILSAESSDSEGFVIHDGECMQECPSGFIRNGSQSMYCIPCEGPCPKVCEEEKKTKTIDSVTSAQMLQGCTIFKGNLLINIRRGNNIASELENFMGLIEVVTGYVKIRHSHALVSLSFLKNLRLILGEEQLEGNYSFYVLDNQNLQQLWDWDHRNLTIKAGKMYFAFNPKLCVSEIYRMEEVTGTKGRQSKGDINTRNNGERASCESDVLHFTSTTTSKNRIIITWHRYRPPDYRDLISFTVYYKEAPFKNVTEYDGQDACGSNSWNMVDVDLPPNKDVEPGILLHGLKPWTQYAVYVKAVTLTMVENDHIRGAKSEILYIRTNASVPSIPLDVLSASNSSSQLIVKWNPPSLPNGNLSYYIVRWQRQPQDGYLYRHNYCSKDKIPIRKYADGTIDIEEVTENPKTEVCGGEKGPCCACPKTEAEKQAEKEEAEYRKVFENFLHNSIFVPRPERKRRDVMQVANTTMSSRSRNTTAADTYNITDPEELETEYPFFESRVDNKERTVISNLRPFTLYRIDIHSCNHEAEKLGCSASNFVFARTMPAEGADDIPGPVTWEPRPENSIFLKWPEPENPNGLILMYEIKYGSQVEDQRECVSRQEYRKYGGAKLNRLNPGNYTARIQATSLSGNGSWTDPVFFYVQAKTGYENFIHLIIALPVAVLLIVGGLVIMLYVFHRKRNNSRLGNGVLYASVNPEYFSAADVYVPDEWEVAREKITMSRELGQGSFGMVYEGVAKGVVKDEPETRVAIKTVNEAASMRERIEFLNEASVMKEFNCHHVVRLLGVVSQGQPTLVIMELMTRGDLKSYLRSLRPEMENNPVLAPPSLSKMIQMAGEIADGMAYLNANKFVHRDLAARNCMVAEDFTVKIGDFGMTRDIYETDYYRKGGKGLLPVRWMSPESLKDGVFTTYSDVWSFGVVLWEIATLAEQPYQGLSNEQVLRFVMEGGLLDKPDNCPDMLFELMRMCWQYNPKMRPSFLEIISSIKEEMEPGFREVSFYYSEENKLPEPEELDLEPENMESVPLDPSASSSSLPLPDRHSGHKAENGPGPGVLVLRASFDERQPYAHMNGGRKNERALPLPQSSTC
off-target kinases (Homo sapiens, UniProt P24723), sequence (P24723 whole entry): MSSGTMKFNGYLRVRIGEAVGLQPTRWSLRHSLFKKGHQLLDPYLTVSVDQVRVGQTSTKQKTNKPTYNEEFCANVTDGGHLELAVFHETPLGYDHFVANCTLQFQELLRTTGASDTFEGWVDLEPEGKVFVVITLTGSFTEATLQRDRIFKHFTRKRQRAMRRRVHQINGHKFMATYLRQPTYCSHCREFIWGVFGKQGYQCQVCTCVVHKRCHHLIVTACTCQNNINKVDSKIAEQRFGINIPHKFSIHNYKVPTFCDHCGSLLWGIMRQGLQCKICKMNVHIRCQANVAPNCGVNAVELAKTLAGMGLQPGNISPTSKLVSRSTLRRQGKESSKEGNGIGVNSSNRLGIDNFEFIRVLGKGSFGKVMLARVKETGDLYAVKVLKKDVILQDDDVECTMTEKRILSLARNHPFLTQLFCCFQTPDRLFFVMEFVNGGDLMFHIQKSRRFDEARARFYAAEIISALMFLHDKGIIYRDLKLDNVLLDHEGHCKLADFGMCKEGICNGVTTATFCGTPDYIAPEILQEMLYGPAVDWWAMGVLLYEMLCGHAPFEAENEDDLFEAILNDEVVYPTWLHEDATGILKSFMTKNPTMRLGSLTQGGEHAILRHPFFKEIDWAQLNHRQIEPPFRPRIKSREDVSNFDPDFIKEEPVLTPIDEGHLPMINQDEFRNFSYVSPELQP
off-target kinases (Homo sapiens, UniProt O60674), sequence (O60674 whole entry): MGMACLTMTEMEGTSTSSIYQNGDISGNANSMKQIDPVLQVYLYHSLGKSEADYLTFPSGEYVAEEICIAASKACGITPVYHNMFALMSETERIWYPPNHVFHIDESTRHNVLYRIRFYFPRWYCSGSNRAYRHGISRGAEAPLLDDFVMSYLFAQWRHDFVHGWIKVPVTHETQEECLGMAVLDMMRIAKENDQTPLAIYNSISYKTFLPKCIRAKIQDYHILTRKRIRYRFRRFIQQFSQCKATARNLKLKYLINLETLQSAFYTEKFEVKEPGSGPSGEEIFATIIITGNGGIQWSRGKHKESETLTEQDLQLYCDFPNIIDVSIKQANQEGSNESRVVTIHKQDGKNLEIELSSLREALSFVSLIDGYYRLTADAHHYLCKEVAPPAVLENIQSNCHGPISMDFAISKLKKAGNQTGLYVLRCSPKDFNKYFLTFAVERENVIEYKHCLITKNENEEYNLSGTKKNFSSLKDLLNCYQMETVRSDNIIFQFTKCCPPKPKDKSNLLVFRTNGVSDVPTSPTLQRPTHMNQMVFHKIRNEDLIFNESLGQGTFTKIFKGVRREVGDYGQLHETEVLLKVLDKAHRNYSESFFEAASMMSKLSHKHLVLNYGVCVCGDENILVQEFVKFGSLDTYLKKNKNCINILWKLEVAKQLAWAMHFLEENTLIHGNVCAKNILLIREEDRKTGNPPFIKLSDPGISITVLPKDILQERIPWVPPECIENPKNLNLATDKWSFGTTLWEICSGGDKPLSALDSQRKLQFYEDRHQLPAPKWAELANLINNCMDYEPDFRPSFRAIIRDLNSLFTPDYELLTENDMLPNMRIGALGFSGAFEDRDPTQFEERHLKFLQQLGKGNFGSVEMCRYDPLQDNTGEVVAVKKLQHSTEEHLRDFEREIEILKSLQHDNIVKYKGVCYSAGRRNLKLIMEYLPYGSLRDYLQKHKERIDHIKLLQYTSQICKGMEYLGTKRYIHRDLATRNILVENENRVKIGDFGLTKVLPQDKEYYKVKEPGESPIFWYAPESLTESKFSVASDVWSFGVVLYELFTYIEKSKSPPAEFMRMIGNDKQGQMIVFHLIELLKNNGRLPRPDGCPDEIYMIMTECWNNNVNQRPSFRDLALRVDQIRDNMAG

Question: N#Cc1cc(-c2ncnc(Nc3ccc(N4CCN(C5COC5)CC4)cc3)n2)ccc1OC1CCOCC1 [Compound 1, 5-(4-((4-(4-(oxetan-3-yl)piperazin-1-yl)phenyl)amino)-1,3,5-triazin-2-yl)-2-((tetrahydro-2H-pyran-4-yl)oxy)benzonitrile] was tested. Which inhibition (off-target kinases [1]; JAK2, read-out: % Inhibition 1) did it give?
Answer: Its inhibition is 67%.

Question: And the inhibition (off-target kinases [1]; JAK2, read-out: % Inhibition 2)?
Answer: Its inhibition is 68%.

Question: And the inhibition (off-target kinases [1]; JAK2, read-out: % Inhibition Avg)?
Answer: The inhibition was 67%.

Question: What about the inhibition (off-target kinases [1]; JAK2 JH1 JH2, read-out: % Inhibition 1) of the same compound?
Answer: Its inhibition is 46%.

Question: What about the inhibition (off-target kinases [1]; JAK2 JH1 JH2, read-out: % Inhibition 2) of the same compound?
Answer: The inhibition was 47%.

Question: What about the inhibition (off-target kinases [1]; JAK2 JH1 JH2, read-out: % Inhibition Avg) of the same compound?
Answer: Its inhibition is 46%.

Question: And the inhibition (off-target kinases [2]; read-out: % Inhibition 1)?
Answer: Its inhibition is 1%.

Question: And the inhibition (off-target kinases [2]; read-out: % Inhibition 2)?
Answer: The inhibition was 2%.

Question: What about the inhibition (off-target kinases [2]; read-out: % Inhibition Avg) of the same compound?
Answer: Its inhibition is 1%.

Question: What about the inhibition (off-target kinases [3]; read-out: % Inhibition 1) of the same compound?
Answer: The inhibition was 12%.

Question: And the inhibition (off-target kinases [3]; read-out: % Inhibition 2)?
Answer: The inhibition was 8%.

Question: And the inhibition (off-target kinases [3]; read-out: % Inhibition Avg)?
Answer: The inhibition was 10%.

Question: What about the inhibition (off-target kinases [4]; CDK2/cyclin A1, LanthaScreen Binding, read-out: % Inhibition 1) of the same compound?
Answer: The inhibition was 33%.

Question: And the inhibition (off-target kinases [4]; CDK2/cyclin A1, LanthaScreen Binding, read-out: % Inhibition 2)?
Answer: The inhibition was 39%.

Question: And the inhibition (off-target kinases [4]; CDK2/cyclin A1, LanthaScreen Binding, read-out: % Inhibition Avg)?
Answer: Its inhibition is 36%.

Question: What about the inhibition (off-target kinases [4]; CDK2/cyclin A2, LanthaScreen Binding, read-out: % Inhibition 1) of the same compound?
Answer: Its inhibition is 24%.

Question: What about the inhibition (off-target kinases [4]; CDK2/cyclin A2, LanthaScreen Binding, read-out: % Inhibition 2) of the same compound?
Answer: Its inhibition is 29%.

Question: What about the inhibition (off-target kinases [4]; CDK2/cyclin A2, LanthaScreen Binding, read-out: % Inhibition Avg) of the same compound?
Answer: The inhibition was 26%.

Question: And the inhibition (off-target kinases [4]; CDK2/cyclin A, ZLYTE, ATP Km app, read-out: % Inhibition 1)?
Answer: Its inhibition is 38%.

Question: What about the inhibition (off-target kinases [4]; CDK2/cyclin A, ZLYTE, ATP Km app, read-out: % Inhibition 2) of the same compound?
Answer: Its inhibition is 36%.

Question: What about the inhibition (off-target kinases [4]; CDK2/cyclin A, ZLYTE, ATP Km app, read-out: % Inhibition Avg) of the same compound?
Answer: The inhibition was 37%.

Question: What about the inhibition (off-target kinases [4]; CDK2/cyclin E1, LanthaScreen Binding, read-out: % Inhibition 1) of the same compound?
Answer: Its inhibition is 15%.

Question: And the inhibition (off-target kinases [4]; CDK2/cyclin E1, LanthaScreen Binding, read-out: % Inhibition 2)?
Answer: The inhibition was 17%.

Question: What about the inhibition (off-target kinases [4]; CDK2/cyclin E1, LanthaScreen Binding, read-out: % Inhibition Avg) of the same compound?
Answer: Its inhibition is 16%.

Question: What about the inhibition (off-target kinases [4]; CDK2/cyclin O, LanthaScreen, read-out: % Inhibition 1) of the same compound?
Answer: The inhibition was 39%.

Question: What about the inhibition (off-target kinases [4]; CDK2/cyclin O, LanthaScreen, read-out: % Inhibition 2) of the same compound?
Answer: Its inhibition is 42%.

Question: And the inhibition (off-target kinases [4]; CDK2/cyclin O, LanthaScreen, read-out: % Inhibition Avg)?
Answer: The inhibition was 41%.

Question: What about the inhibition (off-target kinases [5]; read-out: % Inhibition 1) of the same compound?
Answer: Its inhibition is 14%.

Question: What about the inhibition (off-target kinases [5]; read-out: % Inhibition 2) of the same compound?
Answer: Its inhibition is 17%.

Question: And the inhibition (off-target kinases [5]; read-out: % Inhibition Avg)?
Answer: The inhibition was 16%.

Question: And the inhibition (off-target kinases [6]; CSNK1E (CK1 epsilon), ZLYTE, ATP Km app, read-out: % Inhibition 2)?
Answer: The inhibition was 4%.

Question: What about the inhibition (off-target kinases [6]; CSNK1E (CK1 epsilon), ZLYTE, ATP Km app, read-out: % Inhibition Avg) of the same compound?
Answer: The inhibition was 1%.

Question: And the inhibition (off-target kinases [6]; read-out: % Inhibition 1)?
Answer: The inhibition was -2%.
